The values that follow are results of earlier work, collected in patent publication US20210319872A1, “DRUG AND DEVICE COMBINATION PRODUCTS WITH IMPROVED SAFETY AND EFFICACY PROFILES” (priority 2016, published 2021).

Where two headings read alike, the source gives them in different places.

Turning to `CCCCCCCCc1ccc(CCC(N)(CO)CO)cc1` [Gilenya], for the setting “5 times ULN or greater (ALT, AST)”, the Increased liver enzymes result is “times ULN or greater (ALT, AST), 4.5%)”. The Increased liver enzymes (All elevations (ALT/GGT/AST)) was 15%. For the setting “All infections”, the Infectious disease is 72%. Also, where the note is “in vivo”, the Abdominal pain is given as 11%; the Atrioventricular block entry is given as “Cardiovascular: Atrioventricular block (up to 4.7%),”; the Backache result is recorded as “Musculoskeletal: Backache (10%), Pain, In Extremity (10%)”; the Bradyarrhythmia result was “Bradyarrhythmia (3%.)”. Further, where the note is “in vivo”, the Cough is on record as 12%; the Diarrhea is given as 13%; the Headache result is recorded as “Neurologic: Headache (25%)”; the Herpesvirus infection result was “Immunologic: Cryptococcosis, Herpesvirus infection (9%),”. Moreover, for the setting “in vivo”, the Influenza entry is “Immunologic: Influenza (11%)”; the “Lymphocytopenia (Severe)” value is “Hematologic: Lymphocytopenia (Severe) (7%)”; the “Pain, In Extremity” value is given as “Musculoskeletal: Backache (10%), Pain, In Extremity (10%)”; the Sinusitis is reported as 11%. In addition, for the setting “listed without frequency”, the “Serious side effect, Dermatologic” value is on record as “Dermatologic: Malignant melanoma”; the “Serious side effect, Immunologic” value is on record as “Immunologic: Cryptococcosis, Herpesvirus infection (9%),”; the “Serious side effect, Neurologic” value is “Cryptococcal meningitis”. The Infectious disease (serious infections) is reported as 2.3%. Further, under “up to 3 times ULN (ALT, AST)”, the Increased liver enzymes is recorded as 14%.

Consider `COc1ccc2c3c1O[C@H]1C(=O)CC[C@H]4[C@@H](C2)N(C)CC[C@]314` [Hydrocodone, reference compound], for which, where the note is “in vivo”, the Abdominal pain entry is on record as “Gastrointestinal: Abdominal pain (1% to less than 5%),”; the Constipation entry is recorded as “Constipation (3% to 11%), Nausea (7% to 10%), Vomiting (3% to”; the Difficulty swallowing result was “Gastrointestinal: Difficulty swallowing (less than 1%)”; the Dizziness result is “Neurologic: Dizziness (2% to 3%), Headache (2% to 4%),”. Moreover, under “in vivo”, the Fatigue entry is recorded as “Other: Fatigue (1% to 4%)”; the Headache result is reported as “Neurologic: Dizziness (2% to 3%), Headache (2% to 4%),”; the Hypotension entry was “Cardiovascular: Hypotension (less than 1%), Orthostatic”; the Opioid withdrawal result is reported as “Opioid withdrawal (less than 1%)”. For the setting “in vivo”, the Orthostatic hypotension entry is on record as “hypotension (less than 1%), Prolonged QT interval, Syncope”; the Peripheral edema result was “Cardiovascular: Peripheral edema (1% to less than 5%%)”; the Pruritus entry is reported as “Dermatologic: Pruritus (0% to less than 5%)”; the “Serious side effect, Cardiovascular” value is “hypotension (less than 1%), Prolonged QT interval, Syncope”. Where the note is “in vivo”, the “Serious side effect, Neurologic” value is recorded as “Neurologic: Raised intracranial pressure, Seizure”; the “Serious side effect, Other” value is recorded as “Other: Drug withdrawal syndrome in neonate of dependent mother,”; the “Serious side effect, Respiratory” value is “Respiratory: Respiratory depression”; the Somnolence result is given as “Somnolence (1% to 5%), Tremor (3%)”. Also, where the note is “in vivo”, the Spasm entry is reported as “Musculoskeletal: Spasm (1% to less than 5%)”; the Tremor entry was “Somnolence (1% to 5%), Tremor (3%)”; the Upper respiratory infection entry is listed as “Respiratory: Upper respiratory infection (1% to 3%)”; the “Urinary tract infectious disease” value is recorded as “Renal: Urinary tract infectious disease (1% to 5%)”. In addition, for the setting “in vivo”, the Xerostomia was 6%), Xerostomia (1% to less than 5%).

On to `COc1ccc2c3c1O[C@H]1C(=O)CC[C@H]4[C@@H](C2)N(C)CC[C@]314.O=C(O)C(O)C(O)C(=O)O` [Hysingla ER], for which, where the note is “in vivo”, the Abdominal pain result was “Gastrointestinal: Abdominal pain (1% to less than 5%),”; the Constipation result was “Constipation (3% to 11%), Nausea (7% to 10%), Vomiting (3% to”; the Difficulty swallowing entry is reported as “Gastrointestinal: Difficulty swallowing (less than 1%)”; the Dizziness result was “Neurologic: Dizziness (2% to 3%), Headache (2% to 4%),”. Further, under “in vivo”, the Fatigue result is given as “Other: Fatigue (1% to 4%)”; the Headache entry is recorded as “Neurologic: Dizziness (2% to 3%), Headache (2% to 4%),”; the Hypotension result was “Cardiovascular: Hypotension (less than 1%), Orthostatic”; the Opioid withdrawal entry is “Opioid withdrawal (less than 1%)”. Moreover, for the setting “in vivo”, the Orthostatic hypotension entry is “hypotension (less than 1%), Prolonged QT interval, Syncope”; the Peripheral edema result is recorded as “Cardiovascular: Peripheral edema (1% to less than 5%%)”; the Pruritus entry is given as “Dermatologic: Pruritus (0% to less than 5%)”; the “Serious side effect, Cardiovascular” value is recorded as “hypotension (less than 1%), Prolonged QT interval, Syncope”. Further, where the note is “in vivo”, the “Serious side effect, Neurologic” value is listed as “Neurologic: Raised intracranial pressure, Seizure”; the “Serious side effect, Other” value is reported as “Other: Drug withdrawal syndrome in neonate of dependent mother,”; the “Serious side effect, Respiratory” value is given as “Respiratory: Respiratory depression”; the Somnolence result was “Somnolence (1% to 5%), Tremor (3%)”. Moreover, for the setting “in vivo”, the Spasm result is “Musculoskeletal: Spasm (1% to less than 5%)”; the Tremor entry is “Somnolence (1% to 5%), Tremor (3%)”; the Upper respiratory infection entry was “Respiratory: Upper respiratory infection (1% to 3%)”; the “Urinary tract infectious disease” value is given as “Renal: Urinary tract infectious disease (1% to 5%)”. For the same compound, the Xerostomia (in vivo) was 6%), Xerostomia (1% to less than 5%).

Regarding `CC1Cc2ccccc2N1NC(=O)c1ccc(Cl)c(S(N)(=O)=O)c1` (stereo not drawn) [Indapamide (Lozol)], under “in vivo”, the “Dizziness (incidence)” value was “Neurologic: Asthenia, Dizziness (Greater than or equal to 5%),”; the “Headache (incidence)” value is “Headache (Greater than or equal to 5%), Lethargy, Numbness”; the “Hypokalemia (incidence)” value is listed as “Endocrine metabolic: Hypokalemia (3% to 7%)”.

Regarding `O=C1CN=C(c2ccccc2Cl)c2cc([N+](=O)[O-])ccc2N1` [Klonopin (clonazepam)], where the note is “in vivo”, the Ataxia result was “Neurologic: Ataxia (5% to 30%), Coordination problem (6%),”; the Coordination problem entry is recorded as “Neurologic: Ataxia (5% to 30%), Coordination problem (6%),”; the Depression result is recorded as “Psychiatric: Depression (7%), Suicidal thoughts”; the Dizziness result was “Dizziness (8%), Somnolence (37% to 50%)”. Further, for the setting “in vivo”, the Fatigue entry is on record as “Other: Fatigue (7%)”; the Problem behavior entry is “Psychiatric: Problem behavior (25%)”; the “Serious side effect, Psychiatric” value is reported as “Psychiatric: Depression (7%), Suicidal thoughts”; the “Serious side effect, Respiratory” value is listed as “Respiratory: Respiratory depression”. For the same compound, where the note is “in vivo”, the Somnolence entry is “Dizziness (8%), Somnolence (37% to 50%)” and the Upper respiratory infection entry is recorded as “Respiratory: Upper respiratory infection (8%)”.

Regarding `C[C@H](O)[C@H](O)[C@H]1CNc2[nH]c(N)nc(=O)c2N1.Cl.Cl` [Kuvan], for the setting “in vivo”, the Cough entry is reported as “Respiratory: Cough (4% or more), Nasal congestion (4% or more),”; the Diarrhea result is listed as “Gastrointestinal: Diarrhea (4% or more), Vomiting (4% or more)”; the Headache result is listed as “Neurologic: Headache (4% or greater)”; the Nasal congestion entry is reported as “Respiratory: Cough (4% or more), Nasal congestion (4% or more),”. Also, for the setting “in vivo”, the Nasal discharge result is “Nasal discharge (4% or more), Pain in throat (4% or more), Upper”; the Pain in throat result is listed as “Nasal discharge (4% or more), Pain in throat (4% or more), Upper”; the “Serious side effect, Cardiovascular” value is given as “Cardiovascular: Myocardial infarction”; the “Serious side effect, Gastrointestinal” value is “Gastrointestinal: Gastrointestinal hemorrhage”. Moreover, under “in vivo”, the “Serious side effect, Hematologic” value is reported as “Hematologic: Hemorrhage, Post-procedural”; the “Serious side effect, Neurologic” value is “Neurologic: Seizure”; the “Serious side effect, Respiratory” value is reported as “Respiratory: Respiratory failure”; the Upper respiratory infection result was “respiratory infection (17%)”. Moreover, the Vomiting entry (in vivo) is listed as “Gastrointestinal: Diarrhea (4% or more), Vomiting (4% or more)”.

Consider `Nc1nnc(-c2cccc(Cl)c2Cl)c(N)n1` [Lamictal XR], for which, for the setting “extended-release”, the Anxiety was 3%, the Asthenia is 6%, the Blurred vision is recorded as 3% and the Coordination problem was 3%. Where the note is “extended-release”, the Depression is given as 3%; the Diarrhea was 5%; the Diplopia entry is “extended-release, 5%)”; the Dizziness was 14%. Moreover, under “extended-release”, the Nausea is on record as 7%; the Somnolence is 5%; the Tremor is given as 6%; the Vertigo result was “release, 3%)”. The Vomiting (extended-release) is 6%. Under “immediate release”, the Anemia result is on record as “Hematologic: Anemia (immediate release, less than 0.1%),”; the Eosinophilia is under 0.1%; the Thrombocytopenia was < 1%), Thrombocytopenia (immediate release, less than 0.1%). Further, where the note is “immediate-release”, the Anxiety entry is recorded as “Psychiatric: Anxiety (immediate-release, 4%; extended-release,”; the Depression is 4%; the Headache result was “Headache (immediate-release, 29%), Insomnia (immediate-release,”; the Pain entry is on record as “Other: Pain (immediate-release, 5%)”. Further, where the note is “immediate-release”, the Vertigo is on record as 2%. In addition, where the note is “immediate-release, children”, the Blurred vision was 4% and the Diplopia was 5%. In addition, for the setting “in vivo”, the Angioedema is given as under 0.1% and the Erythema multiforme result is listed as “Dermatologic: Erythema multiforme (less than 0.1%), Rash,”. Moreover, under “listed without frequency”, the “Serious side effect, Hematologic” value is listed as “Disseminated intravascular coagulation, Eosinophilia (immediate”; the “Serious side effect, Hepatic” value is reported as “Hepatic: Liver failure”; the “Serious side effect, Immunologic” value is recorded as “Immunologic: Drug hypersensitivity syndrome”; the “Serious side effect, Neurologic” value is “Neurologic: Aseptic meningitis”.
